Results reported in patent US6869964B2, “Heterocyclicsulfonamide hepatitis C virus inhibitors” (Bristol-Myers Squibb Company, priority 2002, dated 2005).

Key:
[1] = system: HCV replicon in Huh7 cells; test: HCV replicon cell-based assay (FRET); design: species or system HCV strain 1B; settings: Hepatitis C virus, Huh-7; replicon, activity range; read-out: EC50 a, b, c (Activity Table)
Excerpt: HCV Replicon Cell-based Assay
An HCV replicon whole cell system was established as described by Lohmann V, Korner F, Koch J, Herian U, Theilmann L, Bartenschlager R., Science 285(5424): 110-3 (1999). This system enabled us to evaluate the effects of our HCV Protease compounds on HICV RNA replication. Briefly, using the HCV strain 1B sequence described in the Lohmann paper (Assession number: AJ238799), an HCV cDNA was generated encoding the 5′ internal ribosome entry site (IRES), the neomycin resistance gene, the EMCV (encephalomyocarditis virus)-IRES and the HCV nonstructural proteins, NS3-NS5B, and 3′ non-translated region (NTR). In vitro transcripts of the cDNA were transfected into the human hepatoma cell line, Huh7. […] Resulting cell lines were characterized for positive and negative strand RNA production and protein production over time.
Huh7 cells, constitutively expressing the HCV replicon, were grown in Dulbecco's Modified Eagle Media (DMEM) containing 10% Fetal calf serum (FCS) and 1 mg/ml G418 (Gibco-BRL). Cells were seeded the night before (1.5×10^4 cells/well) in 96-well tissue-culture sterile plates. Compound and no compound controls were prepared in DMEM containing 4% FCS, 1:100 Penicillin/Streptomysin, 1:100 L-glutamine and 5% DMSO in the dilution plate (0.5% DMSO final concentration in the assay). Compound/DMSO mixes were added to the cells and incubated for 4 days at 37° C. After 4 days, plates were rinsed thoroughly with Phosphate-Buffered Saline (PBS) (3 times 150 μl). The cells were lysed with 25 μl of a lysis assay reagent containing the FRET peptide (RET S1, as described for the in vitro enzyme assay). The lysis assay reagent was made from 5× cell Luciferase cell culture lysis reagent(Promega #E153A) diluted to 1× with distilled water, NaCl added to 150 mM final, the FRET peptide diluted to 10 μM final from a 2 mM stock in 100% DMSO. The plate was then placed into the Cytofluor 4000 instrument which had been set to 340 nm excitation/490 emission, automatic mode for 21 cycles and the plate read in a kinetic mode. EC50 determinations were carried out as described for the IC50 determinations.

[2] = biological target: T1, HCV NS3/4A protease complex (BMS strain) (Hepatitis C virus genotype 1a, UniProt P27958, C1454S); test: Recombinant HCV NS3/4A protease complex FRET peptide assay, BMS strain; assay type: biochemical, HCV genotype 1a; settings: NS3/4A BMS Strain, activity range; read-out: IC50 a, b, c (Activity Table)
T1 construct: HCV NS3/4A protease complex (amino acids 1027 to 1711); inferred from pET21b vector and Ni-NTA purification; made in house; host or cells: Escherichia coli BL21 (DE3), pET21b
Excerpt: Recombinant HCV NS3/4A Protease Complex FRET Peptide Assay
The purpose of this in vitro assay was to measure the inhibition of HCV NS3 protease complexes, derived from the BMS, H77C or J4l6S strains, as described below, by compounds of the present invention. This assay provides an indication of how effective compounds of the present invention would be in inhibiting HCV proteolytic activity.
Serum from an HCV-infected patient was obtained from Dr. T. Wright, San Francisco Hospital. An engineered full-length cDNA template of the HCV genome (BMS strain) was constructed from DNA fragments obtained by reverse transcription-PCR (RT-PCR) of serum RNA and using primers selected on the basis of homology between other genotype la strains. From the determination of the entire genome sequence, a genotype la was assigned to the HCV isolate according to the classification of Simmonds et al. (See P Simmonds, K A Rose, S Graham, S W Chan, F McOmish, B C Dow, E A Follett, P L Yap and H Marsden, J. Clin. Microbiol., 31(6), 1493-1503 (1993)). […] The infectious clones, H77C (1a genotype) and J4 L6S (1b genotype) were obtained from R. Purcell (NIH) and the sequences are published in Genbank (AAB67036, see Yanagi, M., Purcell, R. H., Emerson, S. U. and Bukh, J. Proc. Natl. Acad. Sci. U.S.A. 94(16),8738-8743 (1997); AF054247, see Yanagi, M., St Claire, M., Shapiro, M., Emerson, S. U., Purcell, R. H. and Bukh, J, Virology 244 (1), 161-172. (1998)).
The BMS, H77C and J4 L6S strains were used for production of recombinant NS3/4A protease complexes. DNA encoding the recombinant HCV NS3/4A protease complex (amino acids 1027 to 1711) for these strains were manipulated as described by P. Gallinari et al. (see Gallinari P, Paolini C, Brennan D, Nardi C, Steinkuhler C, De Francesco R. Biochemistry. 38(17):5620-32, (1999)). Briefly, a three-lysine solubilizing tail was added at the 3′-end of the NS4A coding region. The cysteine in the P1 position of the NS4A-NS4B cleavage site (amino acid 1711) was changed to a glycine to avoid the proteolytic cleavage of the lysine tag. Furthermore, a cysteine to serine mutation was introduced by PCR at amino acid position 1454 to prevent the autolytic cleavage in the NS3 helicase domain. The variant DNA fragment was cloned in the pET21b bacterial expression vector (Novagen) and the NS3/4A complex was expressed in Escherichia coli strain BL21 (DE3) (Invitrogen) following the protocol described by P. Gallinari et al. (see Gallinari P, Brennan D, Nardi C, Brunetti M, Tomei L, Steinkuhler C, De Francesco R., J Virol. 72(8):6758-69 (1998)) with modifications. Briefly, NS3/4A expression was induced with 0.5 mM Isopropyl β-D-1-thiogalactopyranoside (IPTG) for 22 hr at 20° C. A typical fermentation (10 L) yielded approximately 80 g of wet cell paste. The cells were resuspended in lysis buffer (10 mL/g) consisting of 25 mM N-(2-Hydroxyethyl)Piperazine-N′-(2-Ethane Sulfonic acid) (HEPES), pH7.5, 20% glycerol, 500 mM Sodium Chloride (NaCl), 0.5% Triton-X100, 1 ug/ml lysozyme, 5 mM Magnesium Chloride (MgCl2), 1 ug/ml DnaseI, 5 mM β-Mercaptoethanol (βME), Protease inhibitor—Ethylenediamine Tetraacetic acid (EDTA) free (Roche), homogenized and incubated for 20 mins at 4° C. The homogenate was sonicated and clarified by ultra-centrifugation at 235000 g for lhr at 4° C. Imidazole was added to the supernatant to a final concentration of 15 mM and the pH adjusted to 8.0. The crude protein extract was loaded on a Nickel—Nitrilotriacetic acid (Ni—NTA) column pre-equilibrated with buffer B (25 mM HEPES, pH8.0, 20% glycerol, 500 mM NaCl, 0.5% Triton-X100, 15 mM imidazole, 5 mM βME). The sample was loaded at a flow rate of 1 mL/min. The column was washed with 15 column volumes of buffer C (same as buffer B except with 0.2% Triton-X100). The protein was eluted with 5 column volumes of buffer D (same as buffer C except with 200 mM Imidazole). […]

T1 sequence (P27958 1027-1657 C1454S): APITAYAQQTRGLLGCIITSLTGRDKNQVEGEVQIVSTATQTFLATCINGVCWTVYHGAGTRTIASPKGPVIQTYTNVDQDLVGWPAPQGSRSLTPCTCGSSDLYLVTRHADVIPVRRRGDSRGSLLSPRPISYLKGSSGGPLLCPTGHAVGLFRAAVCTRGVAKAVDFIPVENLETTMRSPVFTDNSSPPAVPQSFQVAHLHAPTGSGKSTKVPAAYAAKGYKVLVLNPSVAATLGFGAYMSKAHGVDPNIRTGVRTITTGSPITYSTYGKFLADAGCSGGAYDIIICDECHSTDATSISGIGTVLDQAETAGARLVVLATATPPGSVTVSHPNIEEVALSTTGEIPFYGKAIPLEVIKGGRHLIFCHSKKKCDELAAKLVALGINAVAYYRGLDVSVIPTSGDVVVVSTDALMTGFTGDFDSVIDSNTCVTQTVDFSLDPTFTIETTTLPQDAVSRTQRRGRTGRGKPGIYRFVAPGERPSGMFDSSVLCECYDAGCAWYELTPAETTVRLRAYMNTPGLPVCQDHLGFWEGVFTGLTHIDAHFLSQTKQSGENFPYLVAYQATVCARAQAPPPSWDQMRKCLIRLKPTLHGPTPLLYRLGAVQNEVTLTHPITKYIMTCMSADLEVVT
T1 sequence (P27958 1658-1711 partner, looked up, stated change not applied): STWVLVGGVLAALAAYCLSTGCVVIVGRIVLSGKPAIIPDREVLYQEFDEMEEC

Compound | EC50 [1] [nM] | IC50 [2] [nM]
C=CC1C[C@]1(NC(=O)[C@@H]1C[C@@H](Oc2cc(-c3ccccc3)nc3cc(OC)ccc23)CN1C(=O)[C@@H](NC(=O)OC(C)(C)C)C(C)(C)C)C(=O)NS(=O)(=O)c1cc(Cl)c(Cl)s1 (stereo in doubt) [Compound 8, {1-[2-{1-[4,5-dichlorothiophene-2-sulfonylaminocarbonyl]-2-vinylcyclopropylcarbamoyl}-4-(7-methoxy-2-phenyl-quinolin-4-yloxy)pyrrolidine-1-carbonyl]-2,2-dimethylpropyl}carbamic acid tert-butyl ester] | 100 to 1000 | < 100
C=CC1C[C@]1(NC(=O)[C@@H]1C[C@@H](Oc2cc(-c3ccccc3)nc3cc(OC)ccc23)CN1C(=O)[C@@H](NC(=O)OC(C)(C)C)C(C)(C)C)C(=O)NS(=O)(=O)c1sc(C)nc1C (stereo in doubt) [Compound 9, {1-[2-{1-[2,4-dimethylthiazole-5-sulfonylaminocarbonyl]-2-vinylcyclopropylcarbamoyl}-4-(7-methoxy-2-phenyl-quinolin-4-yloxy)pyrrolidine-1-carbonyl]-2,2-dimethylpropyl}carbamic acid tert-butyl ester] | 100 to 1000 | < 100
C=CC1C[C@]1(NC(=O)[C@@H]1C[C@@H](Oc2cc(-c3ccccc3)nc3cc(OC)ccc23)CN1C(=O)[C@@H](NC(=O)OC(C)(C)C)C(C)(C)C)C(=O)NS(=O)(=O)c1ccc(C)cn1 (stereo in doubt) [Compound 10, (1-{4-(7-Methoxy-2-phenyl-quinolin-4-yloxy)-2-[1-(5-methyl-pyridine-2-sulfonylaminocarbonyl)-2-vinylcyclopropylcarbamoyl]pyrrolidine-1-carbonyl}-2,2-dimethylpropyl)carbamic acid tert-butyl ester] | 100 to 1000 | < 100
C=CC1C[C@]1(NC(=O)[C@@H]1C[C@@H](Oc2cc(-c3ccccc3)nc3cc(OC)ccc23)CN1C(=O)[C@@H](NC(=O)OC(C)(C)C)C(C)(C)C)C(=O)NS(=O)(=O)c1nnc(NC(C)=O)s1 (stereo in doubt) [Compound 12, {1-[2-[1-(5-Acetylamino-[1,3,4]thiadiazole-2-sulfonylaminocarbonyl)-2-vinylcyclopropylcarbamoyl]-4-(7-methoxy-2-phenyl-quinolin-4-yloxy)-pyrrolidine-1-carbonyl]-2,2-dimethylpropyl}carbamic acid tert-butyl ester] | 1000 to 10000 | 100 to 1000
C=CC1C[C@]1(NC(=O)[C@@H]1C[C@@H](Oc2cc(-c3ccccc3)nc3cc(OC)ccc23)CN1C(=O)[C@@H](NC(=O)OC(C)(C)C)C(C)(C)C)C(=O)NS(=O)(=O)c1c(C)noc1C (stereo in doubt) [Compound 14, {1-[2-[1-(3,5-Dimethylisoxazole-4-sulfonylaminocarbonyl)-2-vinyl-cyclopropylcarbamoyl]-4-(7-methoxy-2-phenyl-quinolin-4-yloxy)-pyrrolidine-1-carbonyl]-2,2-dimethyl-propyl}-carbamic acid tert-butyl ester] | 100 to 1000 | < 100
C=CC1C[C@]1(NC(=O)[C@@H]1C[C@@H](Oc2cc(-c3ccccc3)nc3cc(OC)ccc23)CN1C(=O)[C@@H](NC(=O)OC(C)(C)C)C(C)(C)C)C(=O)NS(=O)(=O)c1nc2ccc(OCC)cc2s1 (stereo in doubt) [Compound 15, {1-[2-[1-(6-Ethoxybenzothiazole-2-sulfonylaminocarbonyl)-2-vinyl-cyclopropylcarbamoyl]-4-(7-methoxy-2-phenyl-quinolin-4-yloxy)-pyrrolidine-1-carbonyl]-2,2-dimethylpropyl}-carbamic acid tert-butyl ester] | 1000 to 10000 | 100 to 1000
C=CC1C[C@]1(NC(=O)[C@@H]1C[C@@H](Oc2cc(-c3ccccc3)nc3cc(OC)ccc23)CN1C(=O)[C@@H](NC(=O)OC(C)(C)C)C(C)(C)C)C(=O)NS(=O)(=O)c1cc([N+](=O)[O-])c(Cl)s1 (stereo in doubt) [Compound 16, {1-[2-[1-(5-Chloro-4-nitro-thiophene-2-sulfonylaminocarbonyl)-2-vinylcyclopropylcarbamoyl]-4-(7-methoxy-2-phenyl-quinolin-4-yloxy)-pyrrolidine-1-carbonyl]-2,2-dimethyl-propyl}carbamic acid tert-butyl ester] | 100 to 1000 | < 100
C=CC1C[C@]1(NC(=O)[C@@H]1C[C@@H](Oc2cc(-c3ccccc3)nc3cc(OC)ccc23)CN1C(=O)[C@@H](NC(=O)OC(C)(C)C)C(C)(C)C)C(=O)NS(=O)(=O)c1ccc(-c2cc(C(F)(F)F)nn2C)s1 (stereo in doubt) [Compound 17, [1-(4-(7-Methoxy-2-phenyl-quinolin-4-yloxy)-2-{1-[5-(2-methyl-5-trifluoromethyl-2H-pyrazol-3-yl)thiophene-2-sulfonylaminocarbonyl]-2-vinyl-cyclopropylcarbamoyl}-pyrrolidine-1-carbonyl)-2,2-dimethylpropyl]carbamic acid tert-butyl ester] | 100 to 1000 | < 100
